Experimental data reported in US7078403B1, “Antiviral agents” (Biota Scientific Management Pty Ltd., priority 1999, dated 2006).

System: HRV type 1A
Test: Inhibition of viral cytopathic effect (CPE), visual scoring or neutral red, HRV type 1A in MRC-5 cells
Assay type: cell-based, human rhinovirus
Conditions: HRV type 1A in MRC-5 cells, CPE inhibition

| SMILES | Activity on Rhinovirus Type 1A EC50 |
| --- | --- |
| CON=Cc1ccc(OCCC2CCN(c3ccc(Cl)nn3)CC2)c(C)c1 [Compound 44] | <0.003 µg/mL |
| CON=Cc1ccc(OCCC2CCN(c3ccc(Cl)nn3)CC2)c(OC)c1 [Compound 33] | 0.014 µg/mL |
| CCCON=Cc1ccc(OCCC2CCN(c3ccc(Cl)nn3)CC2)cc1 [Compound 11] | <0.0032 µg/mL |
| CON=Cc1ccc(OCCC2CCN(c3ccc(C)nn3)CC2)c(C)c1 [Compound 52] | <0.003 µg/mL |
| CCON=Cc1ccc(OCCC2CCN(c3ccc(C)nn3)CC2)c(O)c1 [Compound 146] | 0.051 µg/mL |
| CCON=Cc1ccc(OCC2CCCN(c3ccc(Cl)nn3)C2)cc1 (stereo not drawn) [Compound 28] | 0.180 µg/mL |
| CCON=Cc1ccc(OCCC2CCN(c3ccc(C)nn3)CC2)c(C)c1 [Compound 51] | <0.003 µg/mL |
| CCON=C(CC)c1ccc(OCCC2CCN(c3ccc(Cl)nn3)CC2)cc1 [Compound 34] | 0.627 µg/mL |
| Cc1cc(CCCOc2c(C)cc(C=NOCc3ccccc3)cc2C)on1 [Compound 25] | 0.36 µg/mL |
| C=CCON=Cc1ccc(OCCC2CCN(c3ccc(Cl)nn3)CC2)c(C)c1 [Compound 43] | 0.006 µg/mL |
| CON=Cc1cccc(OCCC2CCN(c3ccc(Cl)nn3)CC2)c1 [Compound 16] | <0.0032 µg/mL |
| CC(C)ON=Cc1ccc(OCCC2CCN(c3ccc(Cl)nn3)CC2)cc1 [Compound 12] | 0.00355 µg/mL |
| CON=Cc1cc(C)c(OCCCc2cc(C)no2)c(C)c1 [Compound 22] | <0.16 µg/mL |
| CCON=Cc1cccc(OCCC2CCN(c3ccc(Cl)nn3)CC2)c1 [Compound 41] | 0.016 µg/mL |

Same assay, conditions: selectivity index = CC50 or MTC divided by EC50; HRV type 1A, MRC-5 cells

| SMILES | Activity on Rhinovirus Type 1A SI |
| --- | --- |
| CON=Cc1ccc(OCCC2CCN(c3ccc(Cl)nn3)CC2)c(C)c1 [Compound 44] | >312 |
| CON=Cc1ccc(OCCC2CCN(c3ccc(Cl)nn3)CC2)c(OC)c1 [Compound 33] | >72.4 |
| CCCON=Cc1ccc(OCCC2CCN(c3ccc(Cl)nn3)CC2)cc1 [Compound 11] | >312 |
| CON=Cc1ccc(OCCC2CCN(c3ccc(C)nn3)CC2)c(C)c1 [Compound 52] | >312 |
| CCON=Cc1ccc(OCCC2CCN(c3ccc(C)nn3)CC2)c(O)c1 [Compound 146] | >19 |
| CCON=Cc1ccc(OCC2CCCN(c3ccc(Cl)nn3)C2)cc1 (stereo not drawn) [Compound 28] | >5.5 |
| CCON=Cc1ccc(OCCC2CCN(c3ccc(C)nn3)CC2)c(C)c1 [Compound 51] | >207.3 |
| CCON=C(CC)c1ccc(OCCC2CCN(c3ccc(Cl)nn3)CC2)cc1 [Compound 34] | >1.59 |
| Cc1cc(CCCOc2c(C)cc(C=NOCc3ccccc3)cc2C)on1 [Compound 25] | >139.4 |
| C=CCON=Cc1ccc(OCCC2CCN(c3ccc(Cl)nn3)CC2)c(C)c1 [Compound 43] | >170 |
| CON=Cc1cccc(OCCC2CCN(c3ccc(Cl)nn3)CC2)c1 [Compound 16] | >312 |
| CC(C)ON=Cc1ccc(OCCC2CCN(c3ccc(Cl)nn3)CC2)cc1 [Compound 12] | >273.7 |
| CON=Cc1cc(C)c(OCCCc2cc(C)no2)c(C)c1 [Compound 22] | >320 |
| CCON=Cc1cccc(OCCC2CCN(c3ccc(Cl)nn3)CC2)c1 [Compound 41] | >63.5 |

System: human embryo lung (MRC-5) cells
Test: Cytotoxicity (CC50 or MTC) in uninfected MRC-5 cells
Conditions: unit not given

| SMILES | Activity on Rhinovirus Type 1A MTC |
| --- | --- |
| CON=Cc1ccc(OCCC2CCN(c3ccc(Cl)nn3)CC2)c(C)c1 [Compound 44] | >1 |
| CON=Cc1ccc(OCCC2CCN(c3ccc(Cl)nn3)CC2)c(OC)c1 [Compound 33] | >1 |
| CCCON=Cc1ccc(OCCC2CCN(c3ccc(Cl)nn3)CC2)cc1 [Compound 11] | >1 |
| CON=Cc1ccc(OCCC2CCN(c3ccc(C)nn3)CC2)c(C)c1 [Compound 52] | >1 |
| CCON=Cc1ccc(OCCC2CCN(c3ccc(C)nn3)CC2)c(O)c1 [Compound 146] | >1 |
| CCON=Cc1ccc(OCC2CCCN(c3ccc(Cl)nn3)C2)cc1 (stereo not drawn) [Compound 28] | >1 |
| CCON=Cc1ccc(OCCC2CCN(c3ccc(C)nn3)CC2)c(C)c1 [Compound 51] | 0.663 |
| CCON=C(CC)c1ccc(OCCC2CCN(c3ccc(Cl)nn3)CC2)cc1 [Compound 34] | >1 |
| Cc1cc(CCCOc2c(C)cc(C=NOCc3ccccc3)cc2C)on1 [Compound 25] | >50 |
| C=CCON=Cc1ccc(OCCC2CCN(c3ccc(Cl)nn3)CC2)c(C)c1 [Compound 43] | >1 |
| CON=Cc1cccc(OCCC2CCN(c3ccc(Cl)nn3)CC2)c1 [Compound 16] | >1 |
| CC(C)ON=Cc1ccc(OCCC2CCN(c3ccc(Cl)nn3)CC2)cc1 [Compound 12] | >1 |
| CON=Cc1cc(C)c(OCCCc2cc(C)no2)c(C)c1 [Compound 22] | 36.0 |
| CCON=Cc1cccc(OCCC2CCN(c3ccc(Cl)nn3)CC2)c1 [Compound 41] | >1 |

System: HRV type 2
Test: Inhibition of viral cytopathic effect (CPE), visual scoring or neutral red, HRV type 2 in KB cells
Assay type: cell-based, human rhinovirus
Conditions: HRV type 2 in KB cells, CPE inhibition

| SMILES | Activity on Rhinovirus Type 2 EC50 |
| --- | --- |
| CON=Cc1ccc(OCCC2CCN(c3ccc(Cl)nn3)CC2)c(C)c1 [Compound 44] | 0.026 µg/mL |
| CON=Cc1ccc(OCCC2CCN(c3ccc(Cl)nn3)CC2)c(OC)c1 [Compound 33] | 0.04 µg/mL |
| CCCON=Cc1ccc(OCCC2CCN(c3ccc(Cl)nn3)CC2)cc1 [Compound 11] | 0.004 µg/mL |
| CCON=Cc1ccc(OCC2CCCN(c3ccc(Cl)nn3)C2)cc1 (stereo not drawn) [Compound 28] | 0.06 µg/mL |
| CCON=C(CC)c1ccc(OCCC2CCN(c3ccc(Cl)nn3)CC2)cc1 [Compound 34] | 0.7 µg/mL |
| Cc1cc(CCCOc2c(C)cc(C=NOCc3ccccc3)cc2C)on1 [Compound 25] | 0.5 µg/mL |
| C=CCON=Cc1ccc(OCCC2CCN(c3ccc(Cl)nn3)CC2)c(C)c1 [Compound 43] | 0.01 µg/mL |
| CON=Cc1cccc(OCCC2CCN(c3ccc(Cl)nn3)CC2)c1 [Compound 16] | <0.001 µg/mL |
| CC(C)ON=Cc1ccc(OCCC2CCN(c3ccc(Cl)nn3)CC2)cc1 [Compound 12] | 0.02 µg/mL |
| CON=Cc1cc(C)c(OCCCc2cc(C)no2)c(C)c1 [Compound 22] | <0.05 µg/mL |
| CCON=Cc1cccc(OCCC2CCN(c3ccc(Cl)nn3)CC2)c1 [Compound 41] | <0.001 µg/mL |

Same assay, conditions: selectivity index = CC50 or MTC divided by EC50; HRV type 2, KB cells

| SMILES | Activity on Rhinovirus Type 2 SI |
| --- | --- |
| CON=Cc1ccc(OCCC2CCN(c3ccc(Cl)nn3)CC2)c(C)c1 [Compound 44] | >38 |
| CON=Cc1ccc(OCCC2CCN(c3ccc(Cl)nn3)CC2)c(OC)c1 [Compound 33] | >25 |
| CCCON=Cc1ccc(OCCC2CCN(c3ccc(Cl)nn3)CC2)cc1 [Compound 11] | >250 |
| CCON=Cc1ccc(OCC2CCCN(c3ccc(Cl)nn3)C2)cc1 (stereo not drawn) [Compound 28] | >17 |
| CCON=C(CC)c1ccc(OCCC2CCN(c3ccc(Cl)nn3)CC2)cc1 [Compound 34] | >1 |
| Cc1cc(CCCOc2c(C)cc(C=NOCc3ccccc3)cc2C)on1 [Compound 25] | 34 |
| C=CCON=Cc1ccc(OCCC2CCN(c3ccc(Cl)nn3)CC2)c(C)c1 [Compound 43] | >100 |
| CON=Cc1cccc(OCCC2CCN(c3ccc(Cl)nn3)CC2)c1 [Compound 16] | >1000 |
| CC(C)ON=Cc1ccc(OCCC2CCN(c3ccc(Cl)nn3)CC2)cc1 [Compound 12] | 50 |
| CON=Cc1cc(C)c(OCCCc2cc(C)no2)c(C)c1 [Compound 22] | >400 |
| CCON=Cc1cccc(OCCC2CCN(c3ccc(Cl)nn3)CC2)c1 [Compound 41] | >1000 |

System: Rhinovirus Type 14
Test: not given
Assay type: cell-based, human rhinovirus
Conditions: HRV-14

| Activity on Rhinovirus Type 14 EC50 | SMILES |
| --- | --- |
| 0.0502 µg/mL | CCON=Cc1ccc(OCCC2CCN(c3cnc(Cl)cn3)CC2)cc1 [Compound 160] |
| 0.0554 µg/mL | CCc1cnc(N2CCC(CCOc3ccc(/C=N/OC)cc3)CC2)nc1 [Compound 204] |
| 0.0514 µg/mL | CCON=Cc1ccc(OCCC2CCN(c3nnc(C(F)(F)F)s3)CC2)cc1 [Compound 154] |
| 0.0402 µg/mL | CO/N=C/c1ccc(OCCC2CCN(c3cncc(Cl)n3)CC2)cc1 [Compound 199] |
| 0.0697 µg/mL | CCO/N=C/c1c(C)cc(OCCC2CCN(c3ccc(C)nn3)CC2)cc1C [Compound 185] |
| 0.0261 µg/mL | CCO/N=C/c1ccc(OCCC2CCN(c3nc4ccccc4o3)CC2)cc1 [Compound 201] |
| 0.0638 µg/mL | CCO/N=C/c1ccc(OCCC2CCN(c3ncc(CC)cn3)CC2)cc1 [Compound 205] |
| 0.0256 µg/mL | CON=Cc1cc(C)c(OCCC2CCN(c3ccc(C)nn3)CC2)cc1C [Compound 191] |
| 0.0032 µg/mL | CCO/N=C/c1ccc(OCCC2CCN(c3ccc(C)nn3)CC2)cc1C [Compound 188] |
| 0.0011 µg/mL | CO/N=C/c1ccc(OCCC2CCN(c3ccc(C)nn3)CC2)cc1C [Compound 189] |
| 0.038 µg/mL | CCO/N=C/c1ccc(OCCCCN(C)c2ccc(Cl)nn2)cc1 [Compound 195] |
| 0.0233 µg/mL | CO/N=C/c1ccc(OCCC2CCN(c3nc4ccccc4s3)CC2)cc1 [Compound 206] |
| 0.0308 µg/mL | CON=Cc1ccc(OCCC2CCN(c3ccc(C)nn3)CC2)c(C)c1C [Compound 193] |
| 0.021 µg/mL | CO/N=C/c1ccc(OCCC2CCN(c3nc4ccccc4o3)CC2)cc1 [Compound 200] |
| 0.0424 µg/mL | CCON=Cc1ccc(OCCC2CCN(c3cccc(C)n3)CC2)cc1 [Compound 196] |
| 0.0349 µg/mL | CO/N=C/c1c(C)cc(OCCC2CCN(c3ccc(C)nn3)CC2)cc1C [Compound 186] |
| 0.0103 µg/mL | CCO/N=C/c1ccc(OCCC2CCN(c3ccc(C)nn3)CC2)cc1OC [Compound 187] |
| 0.0593 µg/mL | CO/N=C/c1ccc(OCCC2CCN(c3nc(OC)nc(OC)n3)CC2)cc1 [Compound 202] |
| 0.060 µg/mL | CCO/N=C/c1ccc(OCCC2CCN(c3nc(OC)nc(OC)n3)CC2)cc1 [Compound 203] |
| 0.0157 µg/mL | CCO/N=C/c1ccc(OCCCCCOc2ccc(Cl)nn2)cc1 [Compound 209] |
| 0.0107 µg/mL | CCO/N=C/c1ccc(OCCC2CCN(c3cc(C)c(Cl)nn3)CC2)cc1 [Compound 212] |
| 0.0593 µg/mL | CCON=Cc1cc(C)c(OCCC2CCN(c3ccc(C)nn3)CC2)cc1C [Compound 190] |
| 0.0258 µg/mL | CCON=Cc1ccc(OCCC2CCN(c3ccc(C)nn3)CC2)c(C)c1C [Compound 192] |

| SMILES | Activity on Rhinovirus Type 14 EC50 |
| --- | --- |
| CON=Cc1ccc(OCCC2CCN(c3ccc(Cl)nn3)CC2)c(C)c1 [Compound 44] | 0.0194 µg/mL |
| CON=Cc1ccc(OCCC2CCN(c3ccc(Cl)nn3)CC2)c(OC)c1 [Compound 33] | 0.0138 µg/mL |
| CCCON=Cc1ccc(OCCC2CCN(c3ccc(Cl)nn3)CC2)cc1 [Compound 11] | 0.0077 µg/mL |
| CON=Cc1ccc(OCCC2CCN(c3ccc(C)nn3)CC2)c(C)c1 [Compound 52] | 0.0054 µg/mL |
| CCON=Cc1ccc(OCCC2CCN(c3ccc(C)nn3)CC2)c(O)c1 [Compound 146] | 0.0084 µg/mL |
| CCON=Cc1ccc(OCCC2CCN(c3ccc(C)nn3)CC2)c(C)c1 [Compound 51] | 0.0093 µg/mL |
